Reference: publication PMC7592892, “Anemarsaponin BII inhibits the activity of CYP3A4, 2D6, and 2E1 with human liver microsomes” (Pharmaceutical Biology, 2020)

Tests used:
[1] = target: T1, CYP2D6 (Homo sapiens, UniProt P10635); test: CYP2D6 inhibition in pooled human liver microsomes (dextromethorphan O-demethylation); assay type: in vitro ADME
T1 construct: marker reactions with specific substrates in human liver microsomes (HLMs); from tissue; host or cells: pooled human liver microsomes
Experimental: (§1) The activity of CYP450s was evaluated by the marker reactions with specific substrates in human liver microsomes (HLMs). The reaction conditions are summarized in Table 1 according to previous studies. The concentration of anemarsaponin BII was 100 μM with the following concentration of specific inhibitors: 10 μM furafylline for CYP1A2, 10 μM tranylcypromine for CYP2A6, 1 μM ketoconazole for CYP3A4, 5 μM montelukast for CYP2C8, 10 μM sulfaphenazole for CYP2C9, 50 μM tranylcypromine for CYP2C19, 10 μM quinidine for CYP2D6, 50 μM clomethiazole for CYP2E1. 200 μL incubation system included 100 mM potassium phosphate buffer (pH 7.4), NADPH generating system (1 mM NADP^+, 10 mM glucose-6-phosphate, 1 U/mL of glucose-6-phosphate dehydrogenase, and 4 mM MgCl2), the appropriate concentration of HLMs, a corresponding probe substrate and anemarsaponin BII (or positive inhibitor for different probe reactions). The HADPH-generating system was added before the incubation to preincubate for 3 min at 37 °C. The reaction was terminated with 100 μL acetonitrile (10% trichloroacetic acid for CYP2A6). Then, the mixture was centrifuged at 12,000 rpm for 10 min, and an aliquot (50 μL) of supernatant was transferred for HPLC analysis with the help of the Agilent 1260 series instrument with DAD and FLD detector according to previous studies. The HPLC conditions for analysis of corresponding metabolites of CYP isoforms are summarized in Table 2 based on previous studies (Lang et al. [2017]; Zhang et al. [2017]).
Incubations were performed in triplicate, and results were represented with the mean value. […]
The effect of anemarsaponin BII on the activity of CYPs was evaluated in pooled human liver microsomes according to previous studies (Dong et al. [2018]; Wang et al. [2019]). The residual activity of eight CYP isoforms was first detected with 100 μM anemarsaponin BII in HLMs. […]
(§2) The enzyme kinetic parameters for the probe reaction were estimated from the best fit line, using least-squares linear regression of the inverse substrate concentration versus the inverse velocity (Lineweaver–Burk plots), and the mean values were used to calculate Vmax and Km. Inhibition data from the experiments that were conducted using multiple compound concentrations were represented by Dixon plots, and inhibition constant (KI) values were calculated using non-linear regression according to the following equation: Competitive inhibition:v=(VmaxS)/(Km(1+I/KI)+S), Non-competitive inhibition:v=(VmaxS)/[Km+S(1+I/KIKi)] where I is the concentration of the compound, KI is the inhibition constant, S is the concentration of the substrate, and Km is the substrate concentration at half the maximum velocity (Vmax) of the reaction. […]

[2] = rat, in vivo; cited from earlier work
[3] = target: T2, CYP2E1 (Homo sapiens, UniProt P05181); test: Time-dependent inhibition of CYP2E1 in HLMs; assay type: in vitro ADME; conditions: 20 μM anemarsaponin BII, data not shown
T2 construct: marker reactions with specific substrates in human liver microsomes (HLMs); from tissue; host or cells: pooled human liver microsomes
Experimental: The effect of incubation time on the inhibition of anemarsaponin BII was evaluated with 20 μM anemarsaponin BII. HLMs were preincubated with anemarsaponin BII and the NADPH-generating system for 30 min at 37 °C. Then, an aliquot (20 μL) was transferred to another incubation tube (final volume 200 μL) containing an NADPH-generating system and probe substrates, of which final concentrations were approximate to Km. After incubating for 0, 5, 10, 15 and 30 min, the reaction was terminated with 100 μL acetonitrile internal standard mix and placed on ice. The metabolites were analyzed by HPLC. To obtain the values of KI and Kinact, another incubation with a higher concentration of substrates (approximately 4-fold Km values) was performed in the presence of 0–50 μM anemarsaponin BII for 0, 5, 10, 15 and 30 min.

[4] = target: T2, CYP2E1; test: CYP2E1 inhibition in pooled human liver microsomes (chlorzoxazone 6-hydroxylation); assay type: in vitro ADME; conditions: for IC50: 0-100 μM anemarsaponin BII
Experimental: as §1
Incubations were performed in triplicate, and results were represented with the mean value. The final microsomal protein concentration and incubation times for the different probe reactions are summarized in Table 1 based on previous studies (Lang et al. [2017]; Wang et al. [2019]).
The effect of anemarsaponin BII on the activity of CYPs was evaluated in pooled human liver microsomes according to previous studies (Dong et al. [2018]; Wang et al. [2019]). The residual activity of eight CYP isoforms was first detected with 100 μM anemarsaponin BII in HLMs. Next, CYPs of which the activity was inhibited by anemarsaponin BII was incubated with 0, 2.5, 5, 10, 25, 50 and 100 μM anemarsaponin BII to explore the values of half inhibition concentration (IC50). Additionally, 0–50 μM anemarsaponin BII was incubated with various concentration of probe substrates (20–100 μM testosterone for CYP3A4, 10–50 μM dextromethorphan for CYP2D6, and 25–250 μM chlorzoxazone for CYP2E1) to obtain the values of KI.
as §2, with “reaction. The mechanism of the inhibition was inspected using the Lineweaver–Burk plots and the enzyme inhibition models.” for “reaction.”

[5] = tested on: T3, CYP2A6; assay type: in vitro ADME; conditions: human, microsomes, 100 μM, pH 7.4
T3 construct: marker reactions with specific substrates in human liver microsomes (HLMs); from tissue; host or cells: pooled human liver microsomes
Experimental: as §1, with “[2017]). Incubations were performed in triplicate, and results were represented with the mean value. The final microsomal protein concentration and incubation times for the different probe reactions are summarized in Table 1 based on previous studies (Lang et al. [2017]; Wang et al. [2019]). The effect of anemarsaponin BII on the activity of CYPs was evaluated in pooled human liver microsomes according to previous studies (Dong et al. [2018]; Wang et al. [2019]). The residual activity of eight CYP isoforms was first detected with 100 μM anemarsaponin BII in HLMs. Next, CYPs of which the activity was inhibited by anemarsaponin BII was incubated with 0, 2.5, 5, 10, 25, 50 and 100 μM anemarsaponin BII to explore the values of half inhibition concentration (IC50). Additionally, 0–50 μM anemarsaponin BII was incubated with various concentration of probe substrates (20–100 μM testosterone for CYP3A4, 10–50 μM dextromethorphan for CYP2D6, and 25–250 μM chlorzoxazone for CYP2E1) to obtain the values of KI.” for “[2017]).”

[6] = 100 μM anemarsaponin BII, residual activity

T1 sequence (P10635 whole entry): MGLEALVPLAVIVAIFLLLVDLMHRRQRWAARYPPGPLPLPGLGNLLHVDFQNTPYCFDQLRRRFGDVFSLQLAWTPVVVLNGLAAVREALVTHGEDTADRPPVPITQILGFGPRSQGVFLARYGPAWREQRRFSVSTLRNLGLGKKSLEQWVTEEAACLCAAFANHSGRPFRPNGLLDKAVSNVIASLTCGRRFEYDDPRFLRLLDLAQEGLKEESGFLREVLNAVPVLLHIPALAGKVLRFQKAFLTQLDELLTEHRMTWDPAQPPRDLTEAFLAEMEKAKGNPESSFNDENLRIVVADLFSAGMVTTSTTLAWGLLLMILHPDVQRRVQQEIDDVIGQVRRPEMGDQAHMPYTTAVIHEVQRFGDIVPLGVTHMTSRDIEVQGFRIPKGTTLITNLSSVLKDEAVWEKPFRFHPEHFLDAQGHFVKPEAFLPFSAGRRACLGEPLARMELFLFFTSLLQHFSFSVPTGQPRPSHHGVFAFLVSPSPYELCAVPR
T2 sequence (P05181 whole entry): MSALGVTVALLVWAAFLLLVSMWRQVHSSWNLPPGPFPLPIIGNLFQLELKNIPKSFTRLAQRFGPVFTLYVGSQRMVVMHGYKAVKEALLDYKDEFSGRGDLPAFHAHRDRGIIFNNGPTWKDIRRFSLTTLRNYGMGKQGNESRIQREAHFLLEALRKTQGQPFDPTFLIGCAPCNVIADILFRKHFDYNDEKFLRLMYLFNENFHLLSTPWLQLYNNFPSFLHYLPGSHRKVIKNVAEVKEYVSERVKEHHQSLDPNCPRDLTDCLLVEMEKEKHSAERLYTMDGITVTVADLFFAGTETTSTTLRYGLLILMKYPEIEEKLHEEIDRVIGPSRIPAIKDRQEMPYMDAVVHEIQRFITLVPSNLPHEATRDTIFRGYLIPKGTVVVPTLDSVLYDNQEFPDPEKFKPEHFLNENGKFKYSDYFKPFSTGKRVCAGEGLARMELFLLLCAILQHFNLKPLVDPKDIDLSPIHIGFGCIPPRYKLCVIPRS

CC(CCC1(O)OC2CC3C4CCC5CC(OC6OC(CO)C(O)C(O)C6OC6OC(CO)C(O)C(O)C6O)CCC5(C)C4CCC3(C)C2C1C)COC1OC(CO)C(O)C(O)C1O (stereo not drawn) [anemarsaponin BII, Anemarsaponin BII]
activity of CYP2D6 decreased to (relative to untreated HLMs) [1, 6]: 18.79%
inhibition model CYP2D6 (Lineweaver–Burk) ([1]; HLMs): competitive
IC50 ([1]; HLMs, 0-100 μM anemarsaponin BII): 16.3 µM
Ki ([1]; HLMs, 10–50 μM dextromethorphan, competitive model): 8.26 µM
half-life (t1/2) [2]: 2.7 h
effect of incubation time on inhibition of CYP2E1 [3]: not affected by the incubation time
activity of CYP2E1 decreased to (relative to untreated HLMs) [4, 6]: 23.45%
inhibition model CYP2E1 (Lineweaver–Burk) ([4]; HLMs): competitive
IC50 ([4]; HLMs): 19.7 µM
Ki ([4]; HLMs, 25–250 μM chlorzoxazone, competitive model): 9.82 µM
IC50 ([4]; human, pooled human liver microsomes, pH 7.4, probe chlorzoxazone (6-hydroxylation), HLMs): 19.3 µM
effect on activity of CYP2A6 [5]: only the activity of CYP3A4, 2D6 and 2E1 was significantly inhibited
